Drawing on patent US8158628B2, “Sulfonylated 1,2,3,4-tetrahydropyrrolo[1,2-a]pyrazine compounds and their use as pharmaceuticals” (Gruenenthal GmbH, priority 2009, dated 2012), this text covers inhibition for 18 compounds.

In general, inhibition refers to the drop in the measured response relative to a control, in per cent.

For the experiment, the target named is T1, B1R of the rat (Rattus norvegicus, UniProt P97583).
T1 construct: expressed in transfected cells; host or cells: CHO K1 cells (Chinese hamster ovary), stably transfected
T1 sequence (P97583 1-337): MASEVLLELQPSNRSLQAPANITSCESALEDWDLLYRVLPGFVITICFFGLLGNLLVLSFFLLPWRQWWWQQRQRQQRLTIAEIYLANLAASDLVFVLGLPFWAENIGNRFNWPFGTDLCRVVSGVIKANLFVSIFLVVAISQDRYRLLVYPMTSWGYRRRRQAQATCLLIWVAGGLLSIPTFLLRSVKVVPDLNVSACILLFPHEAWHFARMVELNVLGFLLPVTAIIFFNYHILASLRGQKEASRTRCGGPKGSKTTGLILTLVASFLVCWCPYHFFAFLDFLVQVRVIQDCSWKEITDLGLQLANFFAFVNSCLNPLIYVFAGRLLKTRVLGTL
As to the kind of experiment: FLIPR Ca2+ functional assay, B1R antagonism, rat B1R in CHO K1 cells. The format is cell-based. Conditions: test substance 10 μM; rB1R CHO K1 cells; agonist Des-Arg9 bradykinin at EC80; % of maximum achievable inhibition. As for the experimental part: The agonistic or antagonistic action of substances on the bradykinin 1 receptor (B1R) of the human and rat species can be quantified with ectopically expressing cell lines (CHO K1 cells) and with the aid of a Ca^2+-sensitive dye (Fluo-4) using a fluorescent imaging plate reader (FLIPR). The value in % activation is based on the Ca^2+ signal after addition of Lys-Des-Arg^9 bradykinin (0.5 nM) or Des-Arg^9 bradykinin (100 nM). Antagonists lead to a suppression of the Ca^2+ influx following administration of the agonist. The % inhibition in comparison with the maximum achievable inhibition is indicated.
1. Functional Investigation on the Bradykinin 1 Receptor (B1R) The agonistic or antagonistic action of substances can be determined on the bradykinin 1 receptor (B1R) of the human and rat species with the following assay. According to this assay, the Ca^2+ inflow through the channel is quantified with the aid of a Ca^2+-sensitive dye (Fluo-4 type, Molecular Probes Europe BV, Leiden, Netherlands) in a fluorescent imaging plate reader (FLIPR, Molecular Devices, Sunnyvale, USA). 2. Method: Chinese hamster ovary cells (CHO K1 cells) which are stably transfected with the human B1R gene (hB1R cells) or the B1R gene of the rat (rB1R cells) are used. For functional investigations these cells are plated-out onto black 96-well plates with a clear base (BD Biosciences, Heidelberg, Germany or Greiner, Frickenhausen, Germany) in a density of 20,000-35,000 cells/well. Overnight the cells are incubated at 37° C. and 5% CO2 in culture medium (hB1R cells: Ham's Nutrient Mixture F12, Gibco Invitrogen GmbH, Karlsruhe, Germany or DMEM, Sigma-Aldrich, Taufkirchen, Germany; rB1R cells: D-MEM/F12, Gibco Invitrogen, Karlsruhe, Germany) with 10 vol. % FBS (foetal bovine serum, Gibco Invitrogen GmbH, Karlsruhe, Germany or PAN Biotech GmbH, Aidenbach, Germany).
On the following day the cells are loaded with 2.13 μM Fluo-4 (Molecular Probes Europe BV, Leiden, Netherlands) in HBSS buffer (Hank's buffered saline solution, Gibco Invitrogen GmbH, Karlsruhe, Germany) with 2.5 mM probenecid (Sigma-Aldrich, Taufkirchen, Germany) and 10 mM HEPES (Sigma-Aldrich, Taufkirchen, Germany) for 60 min at 37° C. The plates are subsequently washed twice with HBSS buffer, and HBSS buffer which additionally contains 0.1% BSA (bovine serum albumin; Sigma-Aldrich, Taufkirchen, Germany), 5.6 mM glucose and 0.05% gelatine (Merck KGaA, Darmstadt, Germany) is added. After a further incubation of 20 minutes at RT, the plates are inserted into the FLIPR for Ca^2+ measurement. Alternatively they are washed with buffer A (15 mM HEPES, 80 mM NaCl, 5 mM KCl, 1.2 mM CaCl2, 0.7 mM MgSO4, 2 g/l glucose, 2.5 mM probenecid) and loaded with buffer A with added 2.5 μM Fluo-4 and 0.025% Pluronic F127 (Sigma-Aldrich, Taufkirchen, Germany). The cells are then washed twice with buffer A and incubated for 30 minutes with buffer A, which additionally contains 0.05% BSA and 0.05% gelatine, at RT and then used for Ca^2+ measurement in the FLIPR. The Ca^2+-dependent fluorescence is measured here before and after addition of substances (λex=488 nm, λem=540 nm). The quantification is performed by measuring the highest fluorescence intensity (FC, fluorescence counts) over time.
The FLIPR protocol comprises two additions of substance. Test substances (10 μM) are first pipetted onto the cells and the Ca^2+ inflow is compared with the control (hB1R: Lys-Des-Arg^9 bradykinin >=50 nM; rB1R: Des-Arg^9 bradykinin 10 μM). The value in % activation based on the Ca^2+ signal after addition of Lys-Des-Arg^9 bradykinin (>=50 nM) or Des-Arg^9 bradykinin (10 μM) is obtained therefrom. After incubation for 10-20 minutes, Lys-Des-Arg^9 bradykinin (hB1R) or Des-Arg^9 bradykinin (rB1R) is applied in the EC80 concentration and the inflow of Ca^2+ is likewise determined.
Antagonists lead to a suppression of the Ca^2+ inflow. The % inhibition in comparison with the maximum achievable inhibition is calculated. […]

As to `Cc1cccc(Cl)c1S(=O)(=O)N1CCn2cccc2C1COCC(=O)N1CCC2(CC1)CCN(c1ccncc1)C2` (stereo not drawn) [Example 14, 2-((2-(2-Chloro-6-methylphenylsulfonyl)-1,2,3,4-tetrahydropyrrolo[1,2-a]pyrazin-1-yl)methoxy)-1-(2-(pyridin-4-yl)-2,8-diazaspiro[4.5]decan-8-yl)ethanone], the inhibition at 10 µM is 109%.
For `O=C(CC1c2cccn2CCN1S(=O)(=O)c1ccc(C(F)(F)F)cc1Cl)N1CCCCC1` (stereo not drawn) [Example 19, 2-(2-(2-Chloro-4-(trifluoromethyl)phenylsulfonyl)-1,2,3,4-tetrahydropyrrolo[1,2-a]pyrazin-1-yl)-1-(piperidin-1-yl)ethanone], the inhibition at 10 µM was -7.98%.
As to `O=C(CC1c2cccn2CCN1S(=O)(=O)c1ccc(C(F)(F)F)cc1Cl)N1CCc2ccccc2C1` (stereo not drawn) [Example 20, 2-(2-(2-Chloro-4-(trifluoromethyl)phenylsulfonyl)-1,2,3,4-tetrahydropyrrolo[1,2-a]pyrazin-1-yl)-1-(3,4-dihydroisoquinolin-2(1H)-yl)ethanone], the inhibition at 10 µM stood at 30.7%.
Then `COc1cc(C)c(S(=O)(=O)N2CCn3cccc3C2CC(=O)N2CCC(O)(c3cccnc3)CC2)c(C)c1` (stereo not drawn) [Example 141, 1-(4-Hydroxy-4-pyridin-3-yl-piperidin-1-yl)-2-[2-[(4-methoxy-2,6-dimethyl-phenyl)sulfonyl]-1,2,3,4-tetrahydro-pyrrolo[1,2-a]pyrazin-1-yl]ethanone], with 37.8%; and `COc1cc(C)c(S(=O)(=O)N2CCn3cccc3C2CC(=O)NCCCN2CCOCC2)c(C)c1` (stereo not drawn) [Example 142, 2-[2-[(4-Methoxy-2,6-dimethyl-phenyl)sulfonyl]-1,2,3,4-tetrahydro-pyrrolo[1,2-a]pyrazin-1-yl]-N-(3-morpholin-4-yl-propyl)-acetamide], with 37.9%; and `COc1cc(C)c(S(=O)(=O)N2CCn3cccc3C2CC(=O)NCCCN2C(C)CCCC2C)c(C)c1` (stereo not drawn) [Example 143, N-[3-(2,6-Dimethyl-piperidin-1-yl)-propyl]-2-[2-[(4-methoxy-2,6-dimethyl-phenyl)sulfonyl]-1,2,3,4-tetrahydro-pyrrolo[1,2-a]pyrazin-1-yl]-acetamide], with 37.4%.
With `COc1cc(C)c(S(=O)(=O)N2CCn3cccc3C2CC(=O)N2CCN(c3ccccc3F)CC2)c(C)c1` (stereo not drawn) [Example 144, 1-[4-(2-Fluorophenyl)-piperazin-1-yl]-2-[2-[(4-methoxy-2,6-dimethyl-phenyl)sulfonyl]-1,2,3,4-tetrahydro-pyrrolo[1,2-a]pyrazin-1-yl]-ethanone], the inhibition at 10 µM came out at 70.3%.
Consider `COc1cc(C)c(S(=O)(=O)N2CCn3cccc3C2CC(=O)N2CCN(c3ccccc3)CC2)c(C)c1` (stereo not drawn) [Example 145, 2-[2-[(4-Methoxy-2,6-dimethyl-phenyl)sulfonyl]-1,2,3,4-tetrahydro-pyrrolo[1,2-a]pyrazin-1-yl]-1-(4-phenyl-piperazin-1-yl)-ethanone], for which the inhibition at 10 µM was determined as 57.7%.
Under `COc1cc(C)c(S(=O)(=O)N2CCn3cccc3C2CC(=O)N2CCC(CCN3CCCCC3)CC2)c(C)c1` (stereo not drawn) [Example 146, 2-[2-[(4-Methoxy-2,6-dimethyl-phenyl)sulfonyl]-1,2,3,4-tetrahydro-pyrrolo[1,2-a]pyrazin-1-yl]-1-[4-(2-piperidin-1-yl-ethyl)-piperidin-1-yl]-ethanone] stands 73.5%; under `COc1cc(C)c(S(=O)(=O)N2CCn3cccc3C2CC(=O)N2CCN(CCn3c(C)ccc3C)CC2)c(C)c1` (stereo not drawn) [Example 147, 1-[4-[2-(2,5-Dimethyl-1H-pyrrol-1-yl)-ethyl]-piperazin-1-yl]-2-[2-[(4-methoxy-2,6-dimethyl-phenyl)sulfonyl]-1,2,3,4-tetrahydro-pyrrolo[1,2-a]pyrazin-1-yl]-ethanone], 86.5%; under `COc1cc(C)c(S(=O)(=O)N2CCn3cccc3C2CC(=O)N2CCC(c3nc4cc(C)ccc4[nH]3)CC2)c(C)c1` (stereo not drawn) [Example 148, 2-[2-[(4-Methoxy-2,6-dimethyl-phenyl)sulfonyl]-1,2,3,4-tetrahydro-pyrrolo[1,2-a]pyrazin-1-yl]-1-[4-(5-methyl-1H-benzoimidazol-2-yl)-piperidin-1-yl]-ethanone], 70.4%.
Under `COc1cc(C)c(S(=O)(=O)N2CCn3cccc3C2CC(=O)N2CCN(c3ccccn3)CC2)c(C)c1` (stereo not drawn) [Example 149, 2-[2-[(4-Methoxy-2,6-dimethyl-phenyl)sulfonyl]-1,2,3,4-tetrahydro-pyrrolo[1,2-a]pyrazin-1-yl]-1-(4-pyridin-2-yl-piperazin-1-yl)-ethanone] stands 68.9%.
Regarding `COc1cc(C)c(S(=O)(=O)N2CCn3cccc3C2CC(=O)N2CCCN(c3ncccc3C#N)CC2)c(C)c1` (stereo not drawn) [Example 150, 2-[4-[2-[2-[(4-Methoxy-2,6-dimethyl-phenyl)sulfonyl]-1,2,3,4-tetrahydro-pyrrolo[1,2-a]pyrazin-1-yl]-acetyl]-[1,4]diazepan-1-yl]-pyridine-3-carbonitrile], the inhibition at 10 µM is 50.3%.
Turning to `COc1cc(C)c(S(=O)(=O)N2CCn3cccc3C2CC(=O)NCC2CCN(Cc3ccccc3)C2)c(C)c1` (stereo not drawn) [Example 151, N-[(1-Benzyl-pyrrolidin-3-yl)-methyl]-2-[2-[(4-methoxy-2,6-dimethyl-phenyl)sulfonyl]-1,2,3,4-tetrahydro-pyrrolo[1,2-a]pyrazin-1-yl]-acetamide], the inhibition at 10 µM worked out at 104%.
Then `COc1cc(C)c(S(=O)(=O)N2CCn3cccc3C2CC(=O)N2CCN(c3ccc(C(F)(F)F)cn3)CC2)c(C)c1` (stereo not drawn) [Example 152, 2-[2-[(4-Methoxy-2,6-dimethyl-phenyl)sulfonyl]-1,2,3,4-tetrahydro-pyrrolo[1,2-a]pyrazin-1-yl]-1-[4-[5-(trifluoromethyl)-pyridin-2-yl]-piperazin-1-yl]-ethanone], with 50.9%; and `Cc1cccc(Cl)c1S(=O)(=O)N1CCn2cccc2C1CC(=O)NCCN1CCCC1` (stereo not drawn) [Example 153, 2-[2-[(2-Chloro-6-methyl-phenyl)sulfonyl]-1,2,3,4-tetrahydro-pyrrolo[1,2-a]pyrazin-1-yl]-N-(2-pyrrolidin-1-yl-ethyl)-acetamide], with 15.8%.
Then `Cc1cccc(Cl)c1S(=O)(=O)N1CCn2cccc2C1CC(=O)NCCCN1CCOCC1` (stereo not drawn) [Example 154, 2-[2-[(2-Chloro-6-methyl-phenyl)sulfonyl]-1,2,3,4-tetrahydro-pyrrolo[1,2-a]pyrazin-1-yl]-N-(3-morpholin-4-yl-propyl)-acetamide], with 41.9%; and `Cc1cccc(Cl)c1S(=O)(=O)N1CCn2cccc2C1CC(=O)NCCCN1C(C)CCCC1C` (stereo not drawn) [Example 155, 2-[2-[(2-Chloro-6-methyl-phenyl)sulfonyl]-1,2,3,4-tetrahydro-pyrrolo[1,2-a]pyrazin-1-yl]-N-[3-(2,6-dimethyl-piperidin-1-yl)-propyl]-acetamide], with 61.5%.
